Assay results as given in DBAASP.
≈ marks a conversion by molar mass, not a printed value.

What was measured:
Test in all cases: ≥ marks a high value that may be exact or a test limit, other limits are often not marked, values filed in µg/mL are converted to µM
[1] = tested on: Candida albicans ATCC 90028
[2] = tested on: Enterobacter cloacae NHTCC 53001
[3] = tested on: Escherichia coli ATCC 25922
[4] = tested on: Klebsiella pneumoniae KK3 9904
[5] = tested on: Pseudomonas aeruginosa ATCC 27853
[6] = tested on: Staphylococcus aureus NCTC 8325
Streptococcus mutans = tested on: Streptococcus mutans
[7] = tested on: Batrachochytrium dendrobatidis JEL-197
[8] = tested on: Escherichia coli ATCC 25726
[9] = tested on: Staphylococcus aureus ATCC 25923
Bacillus megaterium Bm11 = tested on: Bacillus megaterium Bm11
[10] = tested on: Bacillus subtilis ATCC 6633
Escherichia coli D21 = tested on: Escherichia coli D21
[11] = tested on: Proteus vulgaris OX19 ATCC 6380
[12] = tested on: Pseudomonas aeruginosa OT97
[13] = tested on: Shigella flexneri ATCC 203
[14] = tested on: Staphylococcus aureus Cowan 1
[15] = tested on: Staphylococcus aureus JC-1
[16] = tested on: Bacillus subtilis AB91021
[17] = tested on: Bacillus thuringiensis AB92037
Escherichia coli AB94012 = tested on: Escherichia coli AB94012
[18] = tested on: Pseudomonas aeruginosa AB93066
[19] = tested on: Staphylococcus aureus AB94004
[20] = tested on: Staphylococcus aureus P1369
[21] = tested on: Staphylococcus aureus P1374
[22] = tested on: Staphylococcus aureus P1381
[23] = tested on: Staphylococcus aureus P1383
[24] = tested on: Staphylococcus aureus P1386
[25] = tested on: Staphylococcus aureus P969
[26] = tested on: Staphylococcus epidermidis P1111
[27] = tested on: Staphylococcus epidermidis P1368
[28] = tested on: Staphylococcus epidermidis P1389
Staphylococcus sp. = tested on: Staphylococcus sp.
[29] = tested on: Candida albicans ATCC 20032
Escherichia coli ML-35p = tested on: Escherichia coli ML-35p
Escherichia coli = tested on: Escherichia coli
[30] = tested on: Pseudomonas aeruginosa 08031014
[31] = tested on: Pseudomonas aeruginosa PAO1
[32] = tested on: Staphylococcus aureus ATCC 43300

CC[C@H](C)[C@H](NC(=O)[C@H](Cc1cnc[nH]1)NC(=O)[C@H](CCCCN)NC(=O)CNC(=O)[C@H](C)NC(=O)[C@@H](NC(=O)[C@H](CCCCN)NC(=O)[C@H](CC(C)C)NC(=O)[C@@H](NC(=O)CNC(=O)[C@H](CCCCN)NC(=O)[C@H](CC(C)C)NC(=O)[C@@H](NC(=O)[C@H](CO)NC(=O)[C@H](CCSC)NC(=O)[C@H](CC(C)C)NC(=O)CN)C(C)C)C(C)C)[C@@H](C)O)C(=O)N[C@@H](Cc1ccccc1)C(=O)N[C@@H](CCCCN)C(=O)N[C@@H](CC(N)=O)C(=O)N[C@H](C(=O)NCC(=O)NCC(=O)N[C@@H](CO)C(=O)N[C@@H](CC(C)C)C(=O)N[C@@H](CC(C)C)C(=O)N[C@@H](CC(=O)O)C(=O)N[C@@H](CCC(N)=O)C(=O)N[C@@H](C)C(=O)N[C@@H](CCCCN)C(=O)N[C@H]1CSSC[C@@H](C(=O)O)NC(=O)[C@H](CCC(N)=O)NC(=O)CNC(=O)[C@H]([C@@H](C)O)NC(=O)[C@H]([C@@H](C)CC)NC(=O)[C@H](CCCCN)NC1=O)C(C)C [GLMSVLKGVLKTAGKHIFKNVGGSLLDQAKCKITGQC]
MIC [1]: ≥ 100 µM
MIC [2]: 6 µM (≈ 23.1 µg/mL)
MIC [3]: 3 µM (≈ 11.5 µg/mL)
MIC [4]: 6 µM (≈ 23.1 µg/mL)
MIC [5]: 3 µM (≈ 11.5 µg/mL)
MIC [6]: 25 µM (≈ 96.1 µg/mL)

CC[C@H](C)[C@H](NC(=O)[C@H](CCC(=O)O)NC(=O)[C@H](CCCCN)NC(=O)[C@@H](NC(=O)[C@H](CC(N)=O)NC(=O)[C@H](CCC(=O)O)NC(=O)[C@H](C)NC(=O)[C@H](CC(C)C)NC(=O)[C@@H](N)CCCCN)C(C)C)C(=O)N[C@@H](CC(C)C)C(=O)N[C@@H](CCCN=C(N)N)C(=O)O [KLAENVKEILR]
MIC (Streptococcus mutans): ≥ 190 µM

CC[C@H](C)[C@H](NC(=O)CN)C(=O)N[C@@H](Cc1ccccc1)C(=O)N[C@@H](CO)C(=O)N[C@@H](C)C(=O)N[C@@H](CC(C)C)C(=O)N[C@@H](C)C(=O)N[C@@H](C)C(=O)NCC(=O)N[C@H](C(=O)N[C@@H](CCCCN)C(=O)N[C@@H](CC(C)C)C(=O)N[C@@H](CC(C)C)C(=O)NCC(=O)N[C@@H](CC(N)=O)C(=O)N[C@H](C(=O)N[C@@H](CC(C)C)C(=O)N[C@@H](Cc1ccccc1)C(=O)N[C@@H](CCCCN)C(=O)N[C@@H](CCSC)C(=O)N[C@@H](C)C(=O)NCC(=O)N[C@@H](CCCCN)C(=O)N[C@@H](C)C(=O)NCC(=O)N[C@@H](C)C(=O)N[C@@H](CCC(=O)O)C(=O)N[C@@H](Cc1cnc[nH]1)C(=O)N[C@@H](CC(C)C)C(=O)N[C@@H](C)C(=O)N[C@H]1CSSC[C@@H](C(=O)O)NC(=O)[C@H](CCC(N)=O)NC(=O)[C@H](CC(N)=O)NC(=O)[C@H]([C@@H](C)O)NC(=O)[C@H](C)NC(=O)[C@H](CCCCN)NC1=O)[C@@H](C)O)C(C)C [GIFSALAAGVKLLGNTLFKMAGKAGAEHLACKATNQC]
MIC [7]: 12.5 µM (≈ 46.3 µg/mL)
MIC [1]: ≥ 50 µM
MIC [8]: 25 µM (≈ 92.6 µg/mL)
MIC [9]: 12.5 µM (≈ 46.3 µg/mL)

CC[C@H](C)[C@H](NC(=O)[C@H](CCCCN)NC(=O)[C@@H](NC(=O)[C@@H](NC(=O)[C@H](CCC(N)=O)NC(=O)CNC(=O)[C@H](Cc1cnc[nH]1)NC(=O)[C@H](CCC(N)=O)NC(=O)[C@H](CC(N)=O)NC(=O)[C@H](CCC(N)=O)NC(=O)[C@@H](N)C(C)C)C(C)C)C(C)C)C(=O)N[C@@H](Cc1ccccc1)C(=O)N[C@@H](Cc1cnc[nH]1)C(=O)N[C@@H](Cc1cnc[nH]1)C(=O)O [VQNQHGQVVKIFHH]
MIC (Bacillus megaterium Bm11): ≥ 4800 µM
MIC [10]: ≥ 6000 µM
MIC (Escherichia coli D21): ≥ 6000 µM
MIC [11]: ≥ 6000 µM
MIC [12]: ≥ 6000 µM
MIC [13]: ≥ 4800 µM
MIC [14]: ≥ 6000 µM
MIC [15]: ≥ 3200 µM

CC[C@H](C)[C@H](NC(=O)[C@H](CC(C)C)NC(=O)[C@H](CO)NC(=O)[C@H](CCCCN)NC(=O)[C@@H](NC(=O)[C@H](CC(C)C)NC(=O)[C@H](CCCN=C(N)N)NC(=O)[C@H](Cc1ccccc1)NC(=O)[C@@H](N)CC(C)C)[C@@H](C)CC)C(=O)N[C@@H](CCCCN)C(=O)N[C@@H](CCCN=C(N)N)C(=O)N[C@@H](CC(C)C)C(=O)N[C@H](C(=O)N[C@@H](CO)C(=O)N[C@@H](C)C(=O)N[C@@H](Cc1ccccc1)C(=O)N[C@@H](CCCCN)C(N)=O)C(C)C [LFRLIKSLIKRLVSAFK]
MIC [16]: 12.3 µM (≈ 25 µg/mL)
MIC [17]: 12.3 µM (≈ 25 µg/mL)
MIC (Escherichia coli AB94012): 6.15 µM (≈ 12.5 µg/mL)
MIC [18]: ≥ 49.2 µM
MIC [19]: 2.46 µM (≈ 5 µg/mL)
MIC [20]: 3.94 µM (≈ 8 µg/mL)
MIC [21]: 3.94 µM (≈ 8 µg/mL)
MIC [22]: 9.84 µM (≈ 20 µg/mL)
MIC [23]: 4.92 µM (≈ 10 µg/mL)
MIC [24]: 12.3 µM (≈ 25 µg/mL)
MIC [25]: 19.7 µM (≈ 40 µg/mL)
MIC [26]: 9.84 µM (≈ 20 µg/mL)
MIC [27]: 3.94 µM (≈ 8 µg/mL)
MIC [28]: 3.94 µM (≈ 8 µg/mL)
MIC (Staphylococcus sp.): 2.46 µM (≈ 5 µg/mL)

CC[C@H](C)[C@H](NC(=O)[C@H](CCCCN)NC(=O)[C@@H](NC(=O)[C@H](Cc1c[nH]c2ccccc12)NC(=O)[C@H](CS)NC(=O)[C@H](CCCNC(=N)N)NC(=O)[C@@H]1CCCN1C(=O)[C@H](CCCNC(=N)N)NC(=O)[C@H](CC(C)C)NC(=O)[C@H](CO)NC(=O)[C@@H](N)CCCCN)[C@@H](C)CC)C(=O)N[C@@H](CCCCN)C(=O)N[C@@H](Cc1ccccc1)C(=O)N[C@@H](CCCNC(=N)N)C(=O)N[C@@H](CS)C(=O)N[C@@H](CCCCN)C(=O)N[C@@H](CO)C(=O)N[C@@H](CC(C)C)C(=O)N[C@@H](CCCCN)C(=O)N[C@@H](Cc1ccccc1)C(=O)O [KSLRPRCWIKIKFRCKSLKF]
MIC [10]: ≥ 39.4 µM
MIC [29]: 3.7 µM (≈ 9.38 µg/mL)
MIC [3]: 7.39 µM (≈ 18.8 µg/mL)
MIC (Escherichia coli ML-35p): 7.39 µM (≈ 18.8 µg/mL)
MIC (Escherichia coli): 20.9 µM (≈ 53 µg/mL)
MIC [30]: 14.8 µM (≈ 37.5 µg/mL)
MIC [5]: 3.7 µM (≈ 9.38 µg/mL)
MIC [31]: 3.7 µM (≈ 9.38 µg/mL)
MIC [9]: 3.7 µM (≈ 9.38 µg/mL)
MIC [32]: 3.7 µM (≈ 9.38 µg/mL)
